Where “and” joins values, the source holds several entries; their conditions need not be identical. Equal entries are not always repeated.

The record followed here is the Kinase Knowledgebase extract (Sharma et al. 2016).

In this assay the target is MAPK14 (human) (UniProt Q16539). In words: Inhibition of MAPK14 Kinase Activity.
Chain of MAPK14 (human) (Q16539 whole entry, looked up): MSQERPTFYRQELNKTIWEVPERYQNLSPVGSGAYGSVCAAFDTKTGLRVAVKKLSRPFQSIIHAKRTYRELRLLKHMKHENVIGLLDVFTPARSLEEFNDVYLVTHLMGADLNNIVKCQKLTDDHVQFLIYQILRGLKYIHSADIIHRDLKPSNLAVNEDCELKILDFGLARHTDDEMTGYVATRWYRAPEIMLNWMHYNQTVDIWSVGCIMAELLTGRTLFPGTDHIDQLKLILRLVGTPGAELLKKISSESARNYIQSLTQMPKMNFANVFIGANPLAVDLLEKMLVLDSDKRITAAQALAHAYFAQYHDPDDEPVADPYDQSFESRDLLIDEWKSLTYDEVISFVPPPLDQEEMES
In turn, `CC(C)n1c(-c2cccc(C(N)=O)c2)nc(OCc2ccc(F)cc2F)c(Cl)c1=O` returned an IC50 of 1020 nM and an inhibition constant Ki of 557 nM.

`CC(C)n1c(N2CC[C@@H](NCCO)C2)nc(OCc2ccc(F)cc2F)c(Br)c1=O` had an IC50 of 615 nM and an inhibition constant Ki of 343 nM.

For the compound `CC(C)n1c(CCCC(N)=O)nc(OCc2ccc(F)cc2F)c(Cl)c1=O`, the IC50 is 256 nM and the Ki was found to be 127 nM.

The compound `CN[C@@H]1CCN(c2nc(OCc3ccc(F)cc3F)c(Br)c(=O)n2C(C)C)C1` registered a half-inhibitory concentration (IC50) of 12.8 nM and a Ki of 6.37 nM.

`CC(=O)NCCOc1nc(OCc2ccc(F)cc2F)c(Cl)c(=O)n1C(C)C`: the half-maximal inhibitory concentration (IC50) amounted to 80.4 nM and the Ki is 49.3 nM.

`CC(C)n1c(OCCNC(N)=O)nc(OCc2ccc(F)cc2F)c(Cl)c1=O` came in with an IC50 of 21.2 nM and a Ki of 12.4 nM.

Compound `CC(C)n1c(OCCNC(N)=O)nc(OCc2ccc(F)cc2F)c(Br)c1=O` came in with an IC50 of 2.6 nM and a Ki of 0.713 nM.

The compound `CC(=O)NCc1nc(OCc2ccc(F)cc2F)c(Br)c(=O)n1C(C)C` displayed an IC50 of 1380 nM and an inhibition constant Ki of 675 nM.

Regarding `CC(C)n1c(CCCO)nc(OCc2ccc(F)cc2F)c(Cl)c1=O`, the IC50 turned out to be 392 nM and the Ki came out at 202 nM.

`CC(C)n1c(N2CCN(C(=O)C(C)(C)N)CC2)nc(OCc2ccc(F)cc2F)c(Br)c1=O`: the IC50 amounted to 531 nM and the Ki amounted to 222 nM.

`CC(C)n1c(N2CCN(C(=O)CN)CC2)nc(OCc2ccc(F)cc2F)c(Br)c1=O`: the IC50 turned out to be 158 nM and the inhibition constant (Ki) was determined as 81 nM.

Compound `CC(C)n1c(N2CCC(N)C2)nc(OCc2ccc(F)cc2F)c(Br)c1=O` (stereo not given) displayed an IC50 of 150 nM and an inhibitory constant (Ki) of 62.2 nM.

`CC(C)n1c(OCCCC(N)=O)nc(OCc2ccc(F)cc2F)c(Cl)c1=O` displayed an IC50 of 155 nM and a Ki of 73.4 nM.

`CC(=O)NCCCCc1nc(OCc2ccc(F)cc2F)c(Cl)c(=O)n1C(C)C` showed a 50% inhibitory concentration (IC50) of 334 nM and a Ki of 159 nM.

Regarding `CC(C)n1c(NCC(N)=O)nc(OCc2ccc(F)cc2F)c(Br)c1=O`, the IC50 was 14.1 nM and the Ki was determined as 7.03 nM.

Consider `CC(C)n1c(CCCC(=O)NCCO)nc(OCc2ccc(F)cc2F)c(Cl)c1=O`, for which the IC50 worked out at 612 nM and the Ki was 315 nM.

As to `CC(C)n1cnc(OCc2ccc(F)cc2F)c(Cl)c1=O`, the 50% inhibitory concentration (IC50) stood at 296 nM and the Ki was 148 nM.

`CC(C)n1c(NCCNS(C)(=O)=O)nc(OCc2ccc(F)cc2F)c(Br)c1=O` came in with an IC50 of 1.7 nM and a Ki of 0.205 nM.

`CC(C)n1c(-c2ccccc2)nc(OCc2ccc(F)cc2F)c(Cl)c1=O` yielded a concentration for half-maximal inhibition (IC50) of 260 nM and a Ki of 144 nM.

`CNC(=O)NCCOc1nc(OCc2ccc(F)cc2F)c(Cl)c(=O)n1C(C)C`: the IC50 was 249 nM and the Ki was found to be 123 nM.

As to `C=CCCc1nc(OCc2ccc(F)cc2F)c(Cl)c(=O)n1C(C)C`, the 50% inhibitory concentration (IC50) worked out at 164 nM and the inhibitory constant (Ki) came to 79.9 nM.

Regarding `Cc1nc(OCc2ccc(F)cc2CNC(=O)NC2CCCCC2)c(Br)c(=O)n1C(C)C`, the 50% inhibitory concentration (IC50) turned out to be 786 nM and the Ki was 372 nM.

With `CC(C)n1c(NCCN)nc(OCc2ccc(F)cc2F)c(Br)c1=O`, the IC50 was 143 nM and the inhibition constant (Ki) worked out at 78.1 nM.

Take `CC(C)n1c(CCCC(=O)O)nc(OCc2ccc(F)cc2F)c(Cl)c1=O`: the IC50 was 497 nM and the Ki turned out to be 247 nM.

For the compound `CC(C)n1c(OCCN)nc(OCc2ccc(F)cc2F)c(Br)c1=O`, the IC50 is 334 nM and the Ki was 140 nM.

Regarding `CNC(=O)CCCc1nc(OCc2ccc(F)cc2F)c(Cl)c(=O)n1C(C)C`, the half-inhibitory concentration (IC50) came out at 490 nM and the inhibition constant (Ki) was determined as 252 nM.

In turn, `CC(C)n1c(NC[C@H](O)CO)nc(OCc2ccc(F)cc2F)c(Br)c1=O` showed a concentration for half-maximal inhibition (IC50) of 18.3 nM and an inhibitory constant (Ki) of 9.05 nM.

For `CC(C)n1c(OCC(N)=O)nc(OCc2ccc(F)cc2F)c(Br)c1=O`, the half-inhibitory concentration (IC50) amounted to 270 nM and the inhibition constant (Ki) was determined as 132 nM.

`CC(C)n1c(CCCCO)nc(OCc2ccc(F)cc2F)c(Br)c1=O` displayed a half-inhibitory concentration (IC50) of 239 nM and an inhibition constant (Ki) of 114 nM.

As to `CC(C)n1c(NCCC(N)=O)nc(OCc2ccc(F)cc2F)c(Br)c1=O`, the half-inhibitory concentration (IC50) was 12.8 nM and 14.2 nM; the inhibition constant Ki was 6.86 nM and 6.37 nM.

`CC(C)n1c(N2CC[C@@H](O)C2)nc(OCc2ccc(F)cc2F)c(Br)c1=O` returned an IC50 of 605 nM and a Ki of 297 nM.

Regarding `CC(C)n1c(N2CCC[C@H]2C(N)=O)nc(OCc2ccc(F)cc2F)c(Br)c1=O`, the IC50 is 23.8 nM and the Ki was 12.3 nM.

As for `CC(C)n1c(OCCNS(C)(=O)=O)nc(OCc2ccc(F)cc2F)c(Cl)c1=O`, the IC50 came out at 26.3 nM and the Ki was 15.5 nM.

`CC(C)n1c(CCCC(=O)NC[C@@H](C)O)nc(OCc2ccc(F)cc2F)c(Cl)c1=O` came in with a 50% inhibitory concentration (IC50) of 594 nM and a Ki of 310 nM.

Compound `CC(=O)N[C@@H]1CCN(c2nc(OCc3ccc(F)cc3F)c(Cl)c(=O)n2C(C)C)C1` yielded a half-inhibitory concentration (IC50) of 578 nM and an inhibitory constant (Ki) of 371 nM.

`CNC(=O)CNc1nc(OCc2ccc(F)cc2F)c(Br)c(=O)n1C(C)C` gave an IC50 of 80 nM and a Ki of 41.9 nM.

`CC(C)n1c(NCC(=O)N2CCCC2)nc(OCc2ccc(F)cc2F)c(Br)c1=O` came in with an IC50 of 215 nM and a Ki of 102 nM.

Compound `CC(C)n1c(NCCNC(=O)CO)nc(OCc2ccc(F)cc2F)c(Br)c1=O` yielded a half-inhibitory concentration (IC50) of 14.2 nM and an inhibitory constant (Ki) of 6.58 nM.

`CC(=O)NCCOc1nc(OCc2ccc(F)cc2F)c(Br)c(=O)n1C(C)C` showed a half-maximal inhibitory concentration (IC50) of 51 nM and an inhibitory constant (Ki) of 27.4 nM.

Compound `CCN[C@@H]1CCN(c2nc(OCc3ccc(F)cc3F)c(Br)c(=O)n2C(C)C)C1` showed a 50% inhibitory concentration (IC50) of 131 nM and a Ki of 71.6 nM.

In turn, `CC(C)n1c(CCCC(=O)NCCO)nc(OCc2ccc(F)cc2F)c(Br)c1=O` had an IC50 of 600 nM and a Ki of 278 nM.

With `CC(C)n1c(N2CC[C@H](NC(=O)C(C)(C)O)C2)nc(OCc2ccc(F)cc2F)c(Cl)c1=O`, the concentration for half-maximal inhibition (IC50) was 864 nM and the Ki turned out to be 555 nM.

Compound `CC(C)n1c(N2CC[C@H](N)C2)nc(OCc2ccc(F)cc2F)c(Br)c1=O` yielded an IC50 of 818 nM and a Ki of 435 nM.

`CC(C)n1c(NCc2ccc(F)cc2)nc(OCc2ccc(F)cc2F)c(Br)c1=O` displayed a half-inhibitory concentration (IC50) of 29.9 nM and an inhibition constant Ki of 13.7 nM.

Regarding `CCNC(=O)NCc1cc(F)ccc1COc1nc(C)n(C(C)C)c(=O)c1Br`, the IC50 is 129 nM and the inhibitory constant (Ki) was found to be 62.1 nM.

On to `CCNC(=O)NCc1cc(F)ccc1COc1nc(C)n(C(C)C)c(=O)c1Cl`, for which the IC50 came to 380 nM and the inhibitory constant (Ki) was 174 nM.

On to `CC(C)n1c(-c2ccc(C(N)=O)cc2)nc(OCc2ccc(F)cc2F)cc1=O`, for which the IC50 was 260 nM and the Ki was 144 nM.

In turn, `CC(C)n1c(N(C)CC(N)=O)nc(OCc2ccc(F)cc2F)c(Cl)c1=O` registered an IC50 of 1680 nM and a Ki of 774 nM.

Consider `CC(=O)N1CCC(Nc2nc(OCc3ccc(F)cc3F)c(Br)c(=O)n2C(C)C)CC1`, for which the half-inhibitory concentration (IC50) is 87.9 nM and the Ki is 41.4 nM.

`CC(C)n1c(-c2ccccc2)nc(OCc2ccc(F)cc2F)cc1=O`: the IC50 is 3180 nM and the Ki amounted to 1690 nM.
